# Paper PMC9769921, “Characteristics of the GlnH and GlnX Signal Transduction Proteins Controlling PknG-Mediated Phosphorylation of OdhI and 2-Oxoglutarate Dehydrogenase Activity in Corynebacterium glutamicum” (Microbiology Spectrum, 2022)
# Residue numbers refer to the chain shown, from its start. Names may count otherwise. “And” between values parts separate entries of the source, which are not always exact repeats. Equal entries are not always repeated.
# T1: OdhA subunit of the 2-oxoglutarate dehydrogenase complex (ODH) (Corynebacterium glutamicum (endogenous in C. glutamicum ΔodhI)) (UniProt Q8NRC3)
# T1 sequence: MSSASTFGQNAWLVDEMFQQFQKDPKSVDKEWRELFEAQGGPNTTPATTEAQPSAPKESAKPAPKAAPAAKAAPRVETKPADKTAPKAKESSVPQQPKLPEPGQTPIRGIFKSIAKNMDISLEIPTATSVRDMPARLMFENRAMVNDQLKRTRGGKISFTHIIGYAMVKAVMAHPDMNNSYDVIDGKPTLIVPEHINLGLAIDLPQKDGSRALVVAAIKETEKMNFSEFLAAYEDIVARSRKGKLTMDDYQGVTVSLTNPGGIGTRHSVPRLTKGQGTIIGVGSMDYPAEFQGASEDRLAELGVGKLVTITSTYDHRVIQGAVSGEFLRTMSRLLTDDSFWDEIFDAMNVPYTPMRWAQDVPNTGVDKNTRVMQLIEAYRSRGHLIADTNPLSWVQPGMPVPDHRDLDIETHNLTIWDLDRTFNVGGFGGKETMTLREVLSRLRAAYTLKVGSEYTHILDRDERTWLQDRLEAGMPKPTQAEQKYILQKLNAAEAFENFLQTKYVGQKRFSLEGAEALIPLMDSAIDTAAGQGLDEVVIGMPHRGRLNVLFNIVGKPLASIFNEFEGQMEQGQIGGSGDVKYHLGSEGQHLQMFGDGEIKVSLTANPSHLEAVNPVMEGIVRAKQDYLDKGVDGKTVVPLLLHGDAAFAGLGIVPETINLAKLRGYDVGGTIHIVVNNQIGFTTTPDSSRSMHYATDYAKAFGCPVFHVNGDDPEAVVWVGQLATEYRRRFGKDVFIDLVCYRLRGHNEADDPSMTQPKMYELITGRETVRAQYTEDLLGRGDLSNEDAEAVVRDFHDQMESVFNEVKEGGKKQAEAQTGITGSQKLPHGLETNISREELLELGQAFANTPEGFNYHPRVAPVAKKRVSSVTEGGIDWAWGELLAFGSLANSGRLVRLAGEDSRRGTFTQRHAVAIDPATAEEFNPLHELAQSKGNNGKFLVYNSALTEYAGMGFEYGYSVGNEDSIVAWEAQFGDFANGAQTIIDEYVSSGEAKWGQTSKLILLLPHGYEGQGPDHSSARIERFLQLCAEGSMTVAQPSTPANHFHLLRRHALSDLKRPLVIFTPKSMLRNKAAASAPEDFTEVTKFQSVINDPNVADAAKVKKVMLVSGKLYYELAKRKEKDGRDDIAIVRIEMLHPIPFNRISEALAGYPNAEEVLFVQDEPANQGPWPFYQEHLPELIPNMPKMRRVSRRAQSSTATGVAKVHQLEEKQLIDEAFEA
# B1: OdhI (natural protein)
# chain: MSDNNGTPEPQVETTSVFRADLLKEMESSTGTAPASTGAENLPAGSALLVVKRGPNAGARFLLDQPTTTAGRHPESDIFLDDVTVSRRHAEFRINEGEFEVVDVGSLNGTYVNREPRNAQVMQTGDEIQIGKFRLVFLAGPAE
# B2: OdhI-R87P (natural protein)
# chain: B1 chain with R87P
# B3: OdhI-R87A (natural protein)
# chain: B1 chain with R87A
# B4: OdhI: 15-kDa forkhead-associated (FHA) domain-containing protein of C. glutamicum that inhibits ODH; purified, untagged (protein)
# chain: B1 chain
# modifications: left off: His10, N-terminal, cleaved
# Legend:
# His10-GlnHΔSP (GlnH) = His10-GlnHΔSP (GlnH) (Corynebacterium glutamicum, UniProt Q8NM30); assay: Isothermal titration calorimetry with His10-GlnHΔSP; type: binding; details: for binding to His10-GlnHΔSP / mean observed enthalpy change: ITC, 40 mM HEPES pH 7, 100 mM KCl; for binding to His10-GlnHΔSP: 10 mM MgCl2; for mean observed enthalpy change: 10 mM MgCl2, 25°C
# Chain of His10-GlnHΔSP (GlnH) (Q8NM30 entry or part of it, stated change not applied): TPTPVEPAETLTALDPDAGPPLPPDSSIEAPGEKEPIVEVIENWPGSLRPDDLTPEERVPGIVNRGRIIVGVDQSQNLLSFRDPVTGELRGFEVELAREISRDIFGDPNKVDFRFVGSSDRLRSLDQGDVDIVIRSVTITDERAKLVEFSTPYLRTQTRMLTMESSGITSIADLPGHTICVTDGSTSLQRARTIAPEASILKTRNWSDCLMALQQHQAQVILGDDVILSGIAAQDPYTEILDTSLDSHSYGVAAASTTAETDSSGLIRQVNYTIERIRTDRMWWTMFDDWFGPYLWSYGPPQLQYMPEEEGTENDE
# Description: Based on the similarity to the glutamine-binding protein GlnH of E. coli, which is part of the ABC transporter GlnHPQ ([28], [29]), the protein encoded by cg3045 in the C. glutamicum genome was initially annotated as a putative glutamine binding protein ([20]). […] To characterize the ligand binding properties of GlnH, a soluble protein version lacking the N-terminal signal peptide and the lipobox motif was overproduced in E. coli BL21(DE3) using the expression plasmid pET-TEV-glnHΔSP and purified by Ni^2+-chelate affinity chromatography. The His-tagged protein was used for interaction studies with different potential ligands using isothermal titration calorimetry (ITC). Based on the annotation, L-glutamine was first tested as a ligand, but no binding to His10-GlnHΔSP was observed under the conditions used (40 mM HEPES, pH 7, 100 mM KCl, 10 mM MgCl2). In contrast, L-aspartate and L-glutamate served as ligands for His10-GlnHΔSP, although with moderate affinity. […] In both cases, binding was exothermic with mean observed enthalpy changes of −18.5 ± 4.3 kJ/mol for L-aspartate and −17.5 ± 5.0 kJ/mol for L-glutamate. […] In Fig. 6, representative ITC experiments are shown for the five ligands tested.
# Purified His10-GlnHΔSP was dialyzed overnight against a 500-fold excess of dialysis buffer (40 mM HEPES, 100 mM KCl, 10 mM MgCl2, pH 7.0). Stock solutions of the potential ligands L-aspartic acid, L-glutamic acid, L-asparagine, L-glutamine, and 2-oxoglutarate were prepared in dialysis buffer, and the pH was adjusted to pH 7.0 using KOH. ITC measurements were performed with a MicroCal PEAQ-ITC instrument (Malvern Panalytical, Malvern, Great Britain) operated at 25°C. Protein concentrations between 30 μM and 75 μM were used together with ligand concentrations of 7.5 mM to 50 mM. Prior to being filled with 300 μL protein solution, the measuring cell was rinsed with dialysis buffer, while the syringe was filled with 75 μL ligand solution. An ITC run was started with an initial injection of 0.4 μL followed by 12 injections of 3 μL each. In addition, control experiments with ligand solution titrated into the dialysis buffer were performed. The data were analyzed using MicroCal ITC analysis software (Malvern Panalytical), and a fixed 1:1 binding stoichiometry was assumed to determine the binding affinity.
# C. glutamicum = test system: C. glutamicum; design: method as in PMID 15870446; details: cited from earlier work
# M. tuberculosis GlnH = molecular target: M. tuberculosis GlnH; design: method as in PMID 30065086; details: cited from earlier work
# GlnH of C. glutamicum [1] = molecular target: GlnH of C. glutamicum; design: method as in PMID 30065086; details: change in intrinsic tryptophan fluorescence; cited from earlier work
# GlnH of C. glutamicum [2] = test system: GlnH of C. glutamicum; design: method as in PMID 30065086; details: cited from earlier work
# His10-GlnHcore (GlnH) = His10-GlnHcore (GlnH) (Corynebacterium glutamicum, UniProt Q8NM30); assay: Intrinsic tryptophan fluorescence ligand binding, parental His10-GlnHcore
# Chain of His10-GlnHcore (GlnH) (Q8NM30 entry or part of it): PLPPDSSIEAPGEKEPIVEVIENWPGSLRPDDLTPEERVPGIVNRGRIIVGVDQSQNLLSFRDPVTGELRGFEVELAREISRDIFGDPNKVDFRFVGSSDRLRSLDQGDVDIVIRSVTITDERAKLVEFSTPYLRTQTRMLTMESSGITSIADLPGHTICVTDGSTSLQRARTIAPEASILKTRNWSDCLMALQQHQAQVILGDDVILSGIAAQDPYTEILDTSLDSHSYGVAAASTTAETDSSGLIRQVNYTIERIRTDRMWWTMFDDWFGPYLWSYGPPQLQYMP
# [3] = molecular target: T1, OdhA subunit of the 2-oxoglutarate dehydrogenase complex (ODH) (Corynebacterium glutamicum (endogenous in C. glutamicum ΔodhI))
# [4] = molecular target: 2-oxoglutarate dehydrogenase complex (ODH) (Corynebacterium glutamicum, UniProt Q8NRC3); assay: ODH activity of cell-free extracts of C. glutamicum ΔodhI with added OdhI variants (photometric, NADH formation); details: 100% = 135 ± 12 nmol min^−1 (mg protein)^−1 without added OdhI
# Chain of 2-oxoglutarate dehydrogenase complex (ODH) (Q8NTE1 whole entry, one chain of several): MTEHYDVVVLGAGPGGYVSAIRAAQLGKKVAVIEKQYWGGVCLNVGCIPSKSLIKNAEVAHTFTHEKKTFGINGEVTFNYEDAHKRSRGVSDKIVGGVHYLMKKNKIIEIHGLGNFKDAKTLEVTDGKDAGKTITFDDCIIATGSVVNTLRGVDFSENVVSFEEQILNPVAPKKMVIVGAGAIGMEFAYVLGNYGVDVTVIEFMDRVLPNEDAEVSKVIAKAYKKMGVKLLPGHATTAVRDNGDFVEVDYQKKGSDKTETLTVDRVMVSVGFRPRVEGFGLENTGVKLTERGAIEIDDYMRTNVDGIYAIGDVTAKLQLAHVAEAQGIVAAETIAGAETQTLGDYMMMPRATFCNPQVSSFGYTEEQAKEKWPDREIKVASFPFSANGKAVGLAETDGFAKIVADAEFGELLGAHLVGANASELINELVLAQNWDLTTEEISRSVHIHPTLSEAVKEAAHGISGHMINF
# Chain of 2-oxoglutarate dehydrogenase complex (ODH) (Q8NNJ2 whole entry, one chain of several, further chain): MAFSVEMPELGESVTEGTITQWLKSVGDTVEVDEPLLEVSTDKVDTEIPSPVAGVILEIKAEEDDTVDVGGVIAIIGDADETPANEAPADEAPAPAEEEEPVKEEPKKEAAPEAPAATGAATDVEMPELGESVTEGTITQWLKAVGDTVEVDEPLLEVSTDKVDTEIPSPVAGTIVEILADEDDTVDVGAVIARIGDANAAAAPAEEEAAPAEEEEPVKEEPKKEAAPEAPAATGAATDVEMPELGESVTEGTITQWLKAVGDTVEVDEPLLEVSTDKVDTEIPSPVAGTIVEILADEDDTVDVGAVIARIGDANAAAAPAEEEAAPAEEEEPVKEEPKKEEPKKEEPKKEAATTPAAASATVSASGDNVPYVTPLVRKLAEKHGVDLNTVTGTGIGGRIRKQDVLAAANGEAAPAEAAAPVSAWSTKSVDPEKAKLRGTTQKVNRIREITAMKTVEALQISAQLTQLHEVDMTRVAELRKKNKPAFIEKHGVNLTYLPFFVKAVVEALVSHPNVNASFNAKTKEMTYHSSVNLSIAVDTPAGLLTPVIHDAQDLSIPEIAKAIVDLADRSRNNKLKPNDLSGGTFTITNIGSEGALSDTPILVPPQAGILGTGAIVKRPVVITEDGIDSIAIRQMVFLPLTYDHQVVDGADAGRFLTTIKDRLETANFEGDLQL
# Description: Determination of the ODH activity in the presence of different OdhI variants was carried out using a photometric assay following NADH formation as described previously ([6], [8]).
molecule,measurement,setting,value
O=C(O)CCC(=O)C(=O)O [2-oxoglutarate],binding to His10-GlnHΔSP,His10-GlnHΔSP (GlnH),no interaction
CC[C@@H](CO)NCCN[C@@H](CC)CO [Ethambutol],effect on glutamate secretion,C. glutamicum,trigger glutamate secretion
NC(=O)C[C@H](N)C(=O)O [L-asparagine],binding to His10-GlnHΔSP,His10-GlnHΔSP (GlnH),no interaction
N[C@@H](CC(=O)O)C(=O)O [L-aspartate],Kd,His10-GlnHΔSP (GlnH),264 ± 14.6 µM
same,mean observed enthalpy change,His10-GlnHΔSP (GlnH),-4.42 ± 1.03 kcal/mol
same,Kd,M. tuberculosis GlnH,4.8 ± 0.6 µM
same,Kd,GlnH of C. glutamicum [1],550 ± 90 µM
same,effect on thermal stability of GlnH,GlnH of C. glutamicum [2],increased the thermal stability
same,Kd,His10-GlnHcore (GlnH),242 µM
N[C@@H](CCC(=O)O)C(=O)O [L-glutamate],Kd,His10-GlnHΔSP (GlnH),1260 µM
same,mean observed enthalpy change,His10-GlnHΔSP (GlnH),-4.18 ± 1.2 kcal/mol
same,Kd,M. tuberculosis GlnH,15.2 ± 5.7 µM
same,Kd,GlnH of C. glutamicum [1],2060 µM
same,effect on thermal stability of GlnH,GlnH of C. glutamicum [2],increased the thermal stability
same,Kd,His10-GlnHcore (GlnH),1460 µM
NC(=O)CC[C@H](N)C(=O)O [L-glutamine],binding to His10-GlnHΔSP,His10-GlnHΔSP (GlnH),no binding
B1,residual ODH activity of cell-free extracts of C. glutamicum ΔodhI after adding 0.38 nM or 1.9 nM purified OdhI (activity without OdhI = 100%),[3],3%
B2,residual ODH activity of cell-free extracts of C. glutamicum ΔodhI after adding 0.38 nM or 1.9 nM purified OdhI-R87P (activity without OdhI = 100%),[3],> 50%
same,relative specific ODH activity (residual activity),[4]; 0.38 nM protein added,83.1%
B3,residual ODH activity of cell-free extracts of C. glutamicum ΔodhI after adding 0.38 nM or 1.9 nM purified OdhI-R87A (activity without OdhI = 100%),[3],> 50%
same,relative specific ODH activity (residual activity),[4]; 0.38 nM protein added,68.9%
B4,relative specific ODH activity (residual activity),[4]; 0.38 nM protein added,18.6%
same,relative specific ODH activity (residual activity),[4]; 1.9 nM protein added,3% and 3.1%
